Measurements published in patent US12331136B2, “Anti-aging sturgeon roe tetrapeptide and preparation method and application thereof” (Shenzhen Porshealth Bioengineering Co., Ltd., priority 2023, dated 2025).
Residues, ends and D or L forms follow the SMILES beside them.

Assay: Absorption experiment of NLPL in rats (blood LC-MS/MS)
Assay type: in vivo
Details: SD rats, intragastric 50 mg/kg bw
Method: In this research, SD rats are used and divided into three groups: a normal group and sturgeon NLPL (SEQ ID NO: 9) groups (50 mg/kg bw of daily dosage). At 12 h before the experiment, the rats are fasted but allowed to drink water. At 15 min, 45 min, 90 min, 180 min and 360 min after intragastric administration, all rats are anesthetized with 3% pentobarbital sodium, subjected to blood sampling through the abdominal aorta, and then euthanized. The polypeptide samples are prepared by solid phase synthesis and desalted.
• (1) The required samples are taken out, thawed, and mixed uniformly by vortex. • (2) 40 μL of sample is taken from the mixed sample, added with 120 μL of methanol, then shaken for 10 min, and centrifuged at low temperature for 10 min. • (3) 70 μL of supernatant is taken out from the centrifuged sample for subsequent determination. 4.2.2.2 Preparation of Standard Solution
Chromatographic separation is performed by using Waters ACQUITY UPLC I-CLASS ultra-high performance liquid chromatography equipment. Specific conditions are as follows: chromatographic column: Waters UPLC HSS T3 (1.8 μm, 2.1 mm×100 mm)—mobile phase: phase A (water, 0.1% formic acid), phase B (methanol)—flow rate: 0.3 mL/min-injection volume: 5.0 μL-column temperature: 40° C.—single sample analysis time: 8 min.
Mass spectrometric detection is performed by using Waters XEVO TQ-XS series four-pole mass spectrometer. Specific conditions are as follows: positive ion source voltage: 3.0 kV-cone well voltage: 30 V-solvent removal temperature: 500° C.—solvent removal gas flow rate: 1000 L/h-cone well gas flow rate: 150 L/h.
Data are expressed in the form of Mean±SD. Data processing and significance analysis are performed by Graphpad. P<0.05 and P<0.01 indicate significant difference and extremely significant difference in data. The target peak area in the polypeptide metabolism data is calculated by using TargetLynx software, and an allowable error of retention time is 15 s. The calculation of concentration is based on a standard curve method to obtain quantitative results.

time at which NLPL content in the blood reaches a maximum: ≤ 45 min
AUC (rat, blood, po, during the measurement time (to 360 min)): 7.14 ng·h/mL
Cmax (rat, blood, po, read-out: maximum NLPL content in the blood): 1.65 ± 1.75 ng/mL
Compound: CC(C)C[C@H](NC(=O)[C@@H]1CCCN1C(=O)[C@H](CC(C)C)NC(=O)[C@@H](N)CC(N)=O)C(=O)O [NLPL] (H-NLPL-OH; N-terminus and C-terminus assumed)
